Laboratory results taken from PMC10177510, “A Multicenter, Open-Label, Phase I/II Study of FN-1501 in Patients with Advanced Solid Tumors” (Cancers, 2023).

Experiment: Phase I/II dose escalation: safety and tolerability (DLT, TEAE)
Format: in vivo
Description: This Phase 1/2, FIH, open-label, multi-center, single-arm, dose-escalation study was conducted in pts with histologically or cytologically confirmed advanced solid tumors or R/R AML.
In the absence of worrisome toxicity, the remaining pts could be enrolled and dosed in that cohort. Safety evaluations were performed by investigators, the medical monitor, and the Sponsor. A Safety Monitoring Committee determined dose levels to be administered during dose escalation based on data available from the current and previous dose levels.

CN1CCN(Cc2ccc(NC(=O)c3[nH]ncc3Nc3ncnc4[nH]ccc34)cc2)CC1 [FN-1501]
Diarrhea, patients with event (72 mg/day, N = 3): 1 | Dizziness, patients with event (72 mg/day, N = 3): 0 | Dyspnea, patients with event (72 mg/day, N = 3): 0 | Fatigue, patients with event (72 mg/day, N = 3): 0 | Infusion-related reaction, patients with event (72 mg/day, N = 3): 0 | Nausea, patients with event (72 mg/day, N = 3): 1 | Oedema peripheral, patients with event (72 mg/day, N = 3): 1 | Pyrexia, patients with event (72 mg/day, N = 3): 0 | Small intestinal obstruction, Grade ≥ 3 TEAE, n (%) (72 mg/day, N = 3): 1 | Total number of TEAEs (72 mg/day, N = 3): 15 | Total patients with at least 1 TEAE (72 mg/day, N = 3): 2 | Vomiting, patients with event (72 mg/day, N = 3): 0 | Dose-Limiting Toxicity (96 mg/day, 5 patients): 0 | Abdominal pain, patients with event (96 mg/day, N = 5): 0 | Back pain, patients with event (96 mg/day, N = 5): 0 | Constipation, patients with event (96 mg/day, N = 5): 1 | Decreased appetite, patients with event (96 mg/day, N = 5): 0 | Diarrhea, patients with event (96 mg/day, N = 5): 1 | Diarrhoea, Grade ≥ 3 TEAE, n (%) (96 mg/day, N = 5): 1 | Dizziness, patients with event (96 mg/day, N = 5): 1 | Dyspnea, patients with event (96 mg/day, N = 5): 0 | Fatigue, patients with event (96 mg/day, N = 5): 0 | Infusion-related reaction, patients with event (96 mg/day, N = 5): 1 | Lipase increased, Grade ≥ 3 TEAE, n (%) (96 mg/day, N = 5): 1 | Nausea, patients with event (96 mg/day, N = 5): 2 | Oedema peripheral, patients with event (96 mg/day, N = 5): 0 | Pneumonia aspiration, Grade ≥ 3 TEAE, n (%) (96 mg/day, N = 5): 1 | Pneumonia, Grade ≥ 3 TEAE, n (%) (96 mg/day, N = 5): 1 | Pneumothorax, Grade ≥ 3 TEAE, n (%) (96 mg/day, N = 5): 1 | Pyrexia, patients with event (96 mg/day, N = 5): 0 | Total number of TEAEs (96 mg/day, N = 5): 33 | Total patients with at least 1 TEAE (96 mg/day, N = 5): 5 | Vomiting, patients with event (96 mg/day, N = 5): 2 | Dose-Limiting Toxicity (128 mg/day, 3 patients): 0 | Abdominal pain, patients with event (128 mg/day, N = 3): 1 | Acute kidney injury, Grade ≥ 3 TEAE, n (%) (128 mg/day, N = 3): 1 | Aspartate aminotransferase increased, Grade ≥ 3 TEAE, n (%) (128 mg/day, N = 3): 1 | Back pain, patients with event (128 mg/day, N = 3): 1 | Blood creatinine increased, Grade ≥ 3 TEAE, n (%) (128 mg/day, N = 3): 1 | Constipation, patients with event (128 mg/day, N = 3): 0 | Decreased appetite, patients with event (128 mg/day, N = 3): 1 | Diarrhea, patients with event (128 mg/day, N = 3): 0 | Dizziness, patients with event (128 mg/day, N = 3): 1 | Dyspnea, patients with event (128 mg/day, N = 3): 1 | Fatigue, patients with event (128 mg/day, N = 3): 1 | Infusion-related reaction, patients with event (128 mg/day, N = 3): 0 | Nausea, patients with event (128 mg/day, N = 3): 1 | Oedema peripheral, patients with event (128 mg/day, N = 3): 1 | Pyrexia, patients with event (128 mg/day, N = 3): 1 | Total number of TEAEs (128 mg/day, N = 3): 43 | Total patients with at least 1 TEAE (128 mg/day, N = 3): 2 | Vomiting, patients with event (128 mg/day, N = 3): 0 | Dose-Limiting Toxicity (170 mg/day, 4 patients): 0 | Abdominal pain, patients with event (170 mg/day, N = 4): 1 | Back pain, patients with event (170 mg/day, N = 4): 0 | Bacteraemia, Grade ≥ 3 TEAE, n (%) (170 mg/day, N = 4): 1 (25) | Constipation, patients with event (170 mg/day, N = 4): 2 | Decreased appetite, patients with event (170 mg/day, N = 4): 1 | Dehydration, Grade ≥ 3 TEAE, n (%) (170 mg/day, N = 4): 1 (25) | Diarrhea, patients with event (170 mg/day, N = 4): 2 | Dizziness, patients with event (170 mg/day, N = 4): 1 | Dyspnea, patients with event (170 mg/day, N = 4): 2 | Fatigue, patients with event (170 mg/day, N = 4): 4 | Hyponatraemia, Grade ≥ 3 TEAE, n (%) (170 mg/day, N = 4): 1 | Hypoxia, Grade ≥ 3 TEAE, n (%) (170 mg/day, N = 4): 1 (25) | Infusion-related reaction, patients with event (170 mg/day, N = 4): 2 | Lethargy, Grade ≥ 3 TEAE, n (%) (170 mg/day, N = 4): 1 (25) | Nausea, patients with event (170 mg/day, N = 4): 1 | Neutropenia, Grade ≥ 3 TEAE, n (%) (170 mg/day, N = 4): 1 (25) | Oedema peripheral, patients with event (170 mg/day, N = 4): 0 | Pyrexia, patients with event (170 mg/day, N = 4): 0 | Total number of TEAEs (170 mg/day, N = 4): 60 | Total patients with at least 1 TEAE (170 mg/day, N = 4): 4 | Vomiting, patients with event (170 mg/day, N = 4): 1 | DLT of Grade 4 thrombocytopenia, pts (226 mg/d cohort): 1 (25%) | pts with ≥Grade 3 AEs that qualified as DLTs (226 mg/d cohort): 50% | Abdominal pain, patients with event (226 mg/day, N = 4): 0 | Back pain, Grade ≥ 3 TEAE, n (%) (226 mg/day, N = 4): 2 | Back pain, patients with event (226 mg/day, N = 4): 2 | Constipation, patients with event (226 mg/day, N = 4): 0 | Decreased appetite, patients with event (226 mg/day, N = 4): 1 | Diarrhea, patients with event (226 mg/day, N = 4): 3 | Diarrhoea, Grade ≥ 3 TEAE, n (%) (226 mg/day, N = 4): 1 (25) | Dizziness, patients with event (226 mg/day, N = 4): 1 | Dyspnea, patients with event (226 mg/day, N = 4): 0 | Fatigue, patients with event (226 mg/day, N = 4): 0 | Hyponatraemia, Grade ≥ 3 TEAE, n (%) (226 mg/day, N = 4): 1 | Hypophosphataemia, Grade ≥ 3 TEAE, n (%) (226 mg/day, N = 4): 1 (25) | Infusion related reaction, Grade ≥ 3 TEAE, n (%) (226 mg/day, N = 4): 1 (25) | Infusion-related reaction, patients with event (226 mg/day, N = 4): 1 | Iron deficiency anaemia, Grade ≥ 3 TEAE, n (%) (226 mg/day, N = 4): 1 (25) | Nausea, patients with event (226 mg/day, N = 4): 1 | Oedema peripheral, patients with event (226 mg/day, N = 4): 0 | Pneumonia, Grade ≥ 3 TEAE, n (%) (226 mg/day, N = 4): 1 (25) | Pyrexia, patients with event (226 mg/day, N = 4): 0 | Thrombocytopenia, Grade ≥ 3 TEAE, n (%) (226 mg/day, N = 4): 1 (25) | Total number of TEAEs (226 mg/day, N = 4): 46 | Total patients with at least 1 TEAE (226 mg/day, N = 4): 4 | Vomiting, patients with event (226 mg/day, N = 4): 2 | Maximum tolerated dose (MTD) (IV TIW 2 weeks on, 1 week off): 170 mg/day | Maximum tolerated dose (MTD) (IV three times a week for 2 weeks, 21-day cycles): 170 mg | Abdominal distension, Grade ≥ 3 TEAE, n (%) (Total, N = 48): 1 (2) | Abdominal pain, Grade ≥ 3 TEAE, n (%) (Total, N = 48): 1 | Abdominal pain, patients with event (Total, N = 48): 9 | Acute kidney injury, Grade ≥ 3 TEAE, n (%) (Total, N = 48): 1 | Adrenal insufficiency, Grade ≥ 3 TEAE, n (%) (Total, N = 48): 1 (2) | Anaemia, Grade ≥ 3 TEAE, n (%) (Total, N = 48): 1 (2) | Aspartate aminotransferase increased, Grade ≥ 3 TEAE, n (%) (Total, N = 48): 1 | Back pain, patients with event (Total, N = 48): 6 | Bacteraemia, Grade ≥ 3 TEAE, n (%) (Total, N = 48): 1 | Bacterial sepsis, Grade ≥ 3 TEAE, n (%) (Total, N = 48): 1 | Blood alkaline phosphatase increased, Grade ≥ 3 TEAE, n (%) (Total, N = 48): 1 (2) | Blood bilirubin increased, Grade ≥ 3 TEAE, n (%) (Total, N = 48): 1 (2) | Blood creatinine increased, Grade ≥ 3 TEAE, n (%) (Total, N = 48): 1 | Catheter site infection, Grade ≥ 3 TEAE, n (%) (Total, N = 48): 1 | Constipation, patients with event (Total, N = 48): 7 | Decreased appetite, patients with event (Total, N = 48): 6 | Dehydration, Grade ≥ 3 TEAE, n (%) (Total, N = 48): 1 | Delirium, Grade ≥ 3 TEAE, n (%) (Total, N = 48): 1 | Dizziness, patients with event (Total, N = 48): 7 | Dyspnea, patients with event (Total, N = 48): 6 | Fatigue, patients with event (Total, N = 48): 15 | Hypophosphataemia, Grade ≥ 3 TEAE, n (%) (Total, N = 48): 1 | Hypoxia, Grade ≥ 3 TEAE, n (%) (Total, N = 48): 1 | Infusion related reaction, Grade ≥ 3 TEAE, n (%) (Total, N = 48): 1 | Infusion-related reaction, patients with event (Total, N = 48): 7 | Iron deficiency anaemia, Grade ≥ 3 TEAE, n (%) (Total, N = 48): 1 | Lethargy, Grade ≥ 3 TEAE, n (%) (Total, N = 48): 1 | Lipase increased, Grade ≥ 3 TEAE, n (%) (Total, N = 48): 1 (2) | Lung infection, Grade ≥ 3 TEAE, n (%) (Total, N = 48): 1 | Neutropenia, Grade ≥ 3 TEAE, n (%) (Total, N = 48): 1 | Oedema peripheral, patients with event (Total, N = 48): 5 | Peritonitis, Grade ≥ 3 TEAE, n (%) (Total, N = 48): 1 (2) | Pneumonia aspiration, Grade ≥ 3 TEAE, n (%) (Total, N = 48): 1 (2) | Pneumothorax, Grade ≥ 3 TEAE, n (%) (Total, N = 48): 1 (2) | Pyrexia, patients with event (Total, N = 48): 5 | Sepsis, Grade ≥ 3 TEAE, n (%) (Total, N = 48): 1 (2) | Stomatitis, Grade ≥ 3 TEAE, n (%) (Total, N = 48): 1 | Syncope, Grade ≥ 3 TEAE, n (%) (Total, N = 48): 1 (2) | Thrombocytopenia, Grade ≥ 3 TEAE, n (%) (Total, N = 48): 1 | Total number of TEAEs (Total, N = 48): 381 | Total patients with at least 1 TEAE (Total, N = 48): 45 | Vascular access complication, Grade ≥ 3 TEAE, n (%) (Total, N = 48): 1 | Grade 1–2 diarrhea (TEAE), pts (abstract, all doses): 26% | Grade 1–2 fatigue (TEAE), pts (abstract, all doses): 34% | Grade 1–2 nausea (TEAE), pts (abstract, all doses): 32% | Treatment-related adverse events (TRAEs), pts (all doses 2.5 to 226 mg IV): 64% | Abdominal distension, pts (all doses, N = 48): 4 | Gastrointestinal (GI) disorders, pts (all doses, N = 48): 30 (63%) | Grade 1 or 2 fatigue, pts (discussion, all doses): 21% | Grade 1 or 2 nausea, pts (discussion, all doses): 19% | DLTs (doses of 170 mg or lower): No DLTs
